# Test results: US6001872A, “Water soluble transplatinum complexes with anti-cancer activity and method of using same” (priority 1999, dated 1999)
# Entries after “also recorded” stand apart in the source; their conditions may differ.
# Key:
# [1] = in vivo; cited from earlier work
# [2] = test system: murine L1210 cisplatin-sensitive leukemia cells; test: Cytotoxicity: cell-growth inhibition in murine L1210 cisplatin-sensitive leukemia cells, 72-hour drug incubation; format: cell-based; settings: for IC50: 72-hour drug incubation, read-out: ID50 (50% inhibitory drug concentration); for cytotoxicity compared with cisplatin: in vitro
# Procedure: Studies were performed in vitro to assess the cytotoxicity of trans-[Pt(PyAc-N,O)Cl(NH3)] in comparison to several relevant Pt compounds. Cytotoxicity was monitored by cell-growth inhibition experiments in murine L1210 cisplatin-sensitive leukemia cells. The L1210 cell line has been used as a prognosticator of human antitumor activity for some time [Wolpert-DeFilippes, M. K., "Antitumor Activity of Cisplatin Analogs" in: Cisplatin. Current Status and Developments, Prestayko, A. W., Crooke, S. T., and Carter, S. K., eds, Academic Press, (London) 1980, pp. 183-192.]. A separate, non-treated culture was used as a control for these investigations.
# [3] = N,O-chelate formation (displacement of chloride by carboxylate, complex 1 to complex 2); format: physicochemical
# Source text: The details of this synthesis may be found in Example 1 below. The preparation utilizes the anionic N,O-chelating ligand pyridine-2-yl-acetate (PyAc), which introduces a carboxylate donor cis to the nitrogen atom of the planar ligand. The bidentate ligand was used in its O-protected form, i.e., the corresponding methylester (PyAcMe). Formation of the N,O-chelate was achieved via the intermediate dichloro form, trans-[PtCl2 (NH3)(PyAcH)].H2 O (complex 1.H2 O) at neutral pH.
# For the purposes of this invention, it should be further noted that the form for administration to patients may be either complex 1 or complex 2, since the former would spontaneously form the N-O chelate under physiological conditions.
# [4] = presence of a planar ligand, trans geometry; cited from earlier work
Compound,IC50 [2],cytotoxicity compared with cisplatin [2],further results
"N.N.[Cl][Pt+2][Cl] [transplatin, trans-[PtCl2 (NH3)2]]",14000 nM,inactive,therapeutic/biological activity [1]: biologically inactive; also recorded: therapeutically inactive
"trans-[Pt(PyAc-N,O)Cl(NH3)] [Complex 2]",880 nM,comparably cytotoxic to cisplatin itself,solubility in water: 4 mmol 1-1
"cis-[Pt(PyAc-N,O)Cl(NH3)]",> 20000 nM,inactive,cytotoxicity compared with cisplatin ([2]; listed as cis-isomer): must be considered inactive
trans-[PtCl2 (NH3)(PyAcH)] [Complex 1],,,displacement of chloride by carboxylate ([3]; e.g. in 10^-2 M HCl): remarkably facile; formation of complex 2 from complex 1 ([3]; pH values greater than 2): readily formed
"N.N.[Cl][Pt][Cl] [cisplatin, cis-[PtCl2 (NH3)2]]",430 nM,,
N.[Cl][Pt][Cl].c1ccc2ncccc2c1 [trans-[PtCl2 (NH3)(quinoline)]],,,"in vitro cytotoxicity, effect of planar ligand [4]: dramatically enhances the in vitro cytotoxicity"
